Source: the NIST ThermoML archive (doi:10.1016/j.jct.2011.02.002)
± gives the expanded uncertainty stated by the source.

Assay: molar heat capacity at constant pressure
Details: 101.33 kPa, Crystal, Thermal relaxation technique

[Hf+4].[O-2].[O-2] [hafnium(IV) oxide]
molar heat capacity at constant pressure (1.92 K): 0.0006 ± 0.0001 J/K/mol
molar heat capacity at constant pressure (2 K): 0.00065 ± 8.1e-05 J/K/mol
molar heat capacity at constant pressure (2.04 K): 0.0007 ± 0.0001 J/K/mol
molar heat capacity at constant pressure (2.19 K): 0.0009 ± 0.0001 J/K/mol
molar heat capacity at constant pressure (2.48 K): 0.0011 ± 0.0001 J/K/mol
molar heat capacity at constant pressure (2.8 K): 0.0015 ± 0.0002 J/K/mol
molar heat capacity at constant pressure (3.09 K): 0.002 ± 0.0002 J/K/mol
molar heat capacity at constant pressure (3.4 K): 0.0027 ± 0.0003 J/K/mol
molar heat capacity at constant pressure (3.77 K): 0.0037 ± 0.0004 J/K/mol
molar heat capacity at constant pressure (4.17 K): 0.0048 ± 0.0005 J/K/mol
molar heat capacity at constant pressure (4.63 K): 0.0065 ± 0.0007 J/K/mol
molar heat capacity at constant pressure (5 K): 0.00802 ± 0.00082 J/K/mol
molar heat capacity at constant pressure (5.17 K): 0.0091 ± 0.0009 J/K/mol
molar heat capacity at constant pressure (5.74 K): 0.0118 ± 0.0012 J/K/mol
molar heat capacity at constant pressure (6.4 K): 0.0162 ± 0.0016 J/K/mol
molar heat capacity at constant pressure (7.11 K): 0.022 ± 0.0022 J/K/mol
molar heat capacity at constant pressure (7.9 K): 0.0304 ± 0.003 J/K/mol
molar heat capacity at constant pressure (8.79 K): 0.0411 ± 0.0041 J/K/mol
molar heat capacity at constant pressure (9.77 K): 0.0569 ± 0.0057 J/K/mol
molar heat capacity at constant pressure (10 K): 0.061 ± 0.006 J/K/mol
molar heat capacity at constant pressure (10.87 K): 0.0795 ± 0.008 J/K/mol
molar heat capacity at constant pressure (12.08 K): 0.1132 ± 0.011 J/K/mol
molar heat capacity at constant pressure (13.43 K): 0.1598 ± 0.016 J/K/mol
molar heat capacity at constant pressure (14.85 K): 0.2256 ± 0.023 J/K/mol
molar heat capacity at constant pressure (16.63 K): 0.3276 ± 0.033 J/K/mol
molar heat capacity at constant pressure (18.43 K): 0.4834 ± 0.048 J/K/mol
molar heat capacity at constant pressure (20 K): 0.63 ± 0.01 J/K/mol
molar heat capacity at constant pressure (20.37 K): 0.6725 ± 0.014 J/K/mol
molar heat capacity at constant pressure (22.69 K): 0.967 ± 0.019 J/K/mol
molar heat capacity at constant pressure (25.26 K): 1.369 ± 0.028 J/K/mol
molar heat capacity at constant pressure (28.1 K): 1.905 ± 0.038 J/K/mol
molar heat capacity at constant pressure (30 K): 2.3 ± 0.05 J/K/mol
molar heat capacity at constant pressure (31.26 K): 2.569 ± 0.052 J/K/mol
molar heat capacity at constant pressure (34.79 K): 3.429 ± 0.069 J/K/mol
molar heat capacity at constant pressure (38.68 K): 4.469 ± 0.09 J/K/mol
molar heat capacity at constant pressure (40 K): 4.82 ± 0.1 J/K/mol
molar heat capacity at constant pressure (43 K): 5.684 ± 0.11 J/K/mol
molar heat capacity at constant pressure (47.81 K): 7.049 ± 0.14 J/K/mol
molar heat capacity at constant pressure (50 K): 7.72 ± 0.15 J/K/mol
molar heat capacity at constant pressure (53.14 K): 8.65 ± 0.17 J/K/mol
molar heat capacity at constant pressure (59.07 K): 10.45 ± 0.21 J/K/mol
molar heat capacity at constant pressure (65.65 K): 12.39 ± 0.25 J/K/mol
molar heat capacity at constant pressure (72.95 K): 14.5 ± 0.29 J/K/mol
molar heat capacity at constant pressure (81.06 K): 16.95 ± 0.34 J/K/mol
molar heat capacity at constant pressure (90.05 K): 19.69 ± 0.39 J/K/mol
molar heat capacity at constant pressure (100 K): 22.26 ± 0.45 J/K/mol
molar heat capacity at constant pressure (100.01 K): 22.35 ± 0.45 J/K/mol
molar heat capacity at constant pressure (110.26 K): 25.03 ± 0.5 J/K/mol
molar heat capacity at constant pressure (120.29 K): 27.43 ± 0.55 J/K/mol
molar heat capacity at constant pressure (130.3 K): 29.98 ± 0.6 J/K/mol
molar heat capacity at constant pressure (140.32 K): 32.44 ± 0.65 J/K/mol
molar heat capacity at constant pressure (150 K): 34.61 ± 0.69 J/K/mol
molar heat capacity at constant pressure (150.53 K): 34.59 ± 0.69 J/K/mol
molar heat capacity at constant pressure (160.66 K): 36.82 ± 0.74 J/K/mol
molar heat capacity at constant pressure (170.61 K): 38.83 ± 0.78 J/K/mol
molar heat capacity at constant pressure (180.78 K): 40.81 ± 0.82 J/K/mol
molar heat capacity at constant pressure (190.96 K): 42.62 ± 0.85 J/K/mol
molar heat capacity at constant pressure (200 K): 44.22 ± 0.88 J/K/mol
molar heat capacity at constant pressure (201.26 K): 44.45 ± 0.89 J/K/mol
molar heat capacity at constant pressure (211.45 K): 46.16 ± 0.92 J/K/mol
molar heat capacity at constant pressure (221.7 K): 48.01 ± 0.96 J/K/mol
molar heat capacity at constant pressure (231.89 K): 49.47 ± 0.99 J/K/mol
molar heat capacity at constant pressure (242.02 K): 50.89 ± 1 J/K/mol
molar heat capacity at constant pressure (250 K): 51.9 ± 1 J/K/mol
molar heat capacity at constant pressure (252.09 K): 52.39 ± 1 J/K/mol
molar heat capacity at constant pressure (262.17 K): 53.45 ± 1.1 J/K/mol
molar heat capacity at constant pressure (272.31 K): 54.56 ± 1.1 J/K/mol
molar heat capacity at constant pressure (273.15 K): 54.95 ± 1.1 J/K/mol
molar heat capacity at constant pressure (282.4 K): 55.7 ± 1.1 J/K/mol
molar heat capacity at constant pressure (292.46 K): 56.89 ± 1.1 J/K/mol
molar heat capacity at constant pressure (298.15 K): 57.73 ± 1.1 J/K/mol
molar heat capacity at constant pressure (302.51 K): 58.63 ± 1.2 J/K/mol
